Values quoted from earlier work, collected in patent publication US20060233842A1, “Microemulsion composition for oral administration of biphenyldimethyldicarboxylate” (priority 2002, published 2006).
Read-outs that look alike come from different tables or passages of the source.

CCOCCOCCO [transcutol, diethyleneglycol monoethylether]
LD50 for acute oral toxicity (Gattefosse product profile): 7.95 ml (specific gravity, 0.989)/kg

CC(=O)OCC(COC(C)=O)OC(C)=O [triacetine]
LD50 for acute oral toxicity: 1.1 g/kg
